From ChEMBL document CHEMBL1126140, “Nucleosides and nucleotides. 103. 2-Alkynyladenosines: a novel class of selective adenosine A2 receptor agonists with potent antihypertensive effects” (J Med Chem, 1992)

test system: Rattus norvegicus; test: Dose producing 10% decrease of heart rate in anesthetized rats (SHR); assay type: functional

| SMILES | ED10 [µg/kg] |
| --- | --- |
| OC[C@H]1O[C@@H](n2cnc3c(NC4CCCC4)ncnc32)[C@H](O)[C@@H]1O [N6-CYCLOPENTYLADENOSINE] | 0.14 |
| CCOCCCC#Cc1nc(N)c2ncn([C@@H]3O[C@H](CO)[C@@H](O)[C@H]3O)c2n1 | > 100 |
| C#Cc1nc(N)c2ncn(C3O[C@H](CO)[C@@H](O)[C@H]3O)c2n1 (stereo not given in full) | 5.76 |
| CCCCCC#Cc1nc(N)c2ncn([C@@H]3O[C@H](CO)[C@@H](O)[C@H]3O)c2n1 | > 100 |
| CCCCOCC#Cc1nc(N)c2ncn([C@@H]3O[C@H](CO)[C@@H](O)[C@H]3O)c2n1 | 9.59 |
| COCC#Cc1nc(N)c2ncn([C@@H]3O[C@H](CO)[C@@H](O)[C@H]3O)c2n1 | 44.2 |
| CCCCCCC#Cc1nc2c(N)ncnc2n1C1O[C@H](CO)[C@@H](O)[C@H]1O (stereo not given in full) | > 100 |
| CCNC(=O)[C@H]1O[C@@H](n2cnc3c(N)nc(NCCc4ccc(CCC(=O)O)cc4)nc32)[C@H](O)[C@@H]1O [CGS-21680] | > 100 |
| COc1cc(OC)cc(C(CNc2ncnc3c2ncn3[C@@H]2O[C@H](CO)[C@@H](O)[C@H]2O)c2ccccc2C)c1 (stereo not given in full) | > 100 |
| CCCOCCC#Cc1nc(N)c2ncn(C3O[C@H](CO)[C@@H](O)[C@H]3O)c2n1 (stereo not given in full) | 79.9 |
| CCCCCCCC#Cc1nc(N)c2ncn([C@@H]3O[C@H](CO)[C@@H](O)[C@H]3O)c2n1 | > 100 |
| CCCCCCC#Cc1nc(O)c2ncn(C3O[C@H](CO)[C@@H](O)[C@H]3O)c2n1 (stereo not given in full) | > 100 |
| CCCCCCCCOCCC#Cc1nc(N)c2ncn([C@@H]3O[C@H](CO)[C@@H](O)[C@H]3O)c2n1 | > 100 |
| CCCCC#Cc1nc(N)c2ncn([C@@H]3O[C@H](CO)[C@@H](O)[C@H]3O)c2n1 | 66.9 |
| Nc1nc(C#CCCO)nc2c1ncn2[C@@H]1O[C@H](CO)[C@@H](O)[C@H]1O | 15.3 |

target: Adenosine A2 receptor (Rattus norvegicus, UniProt P29276+P30543)
Description: Binding affinity against adenosine A2 receptor in rat striatal membranes using [3H]NECA as radioligand

| SMILES | Ki [nM] |
| --- | --- |
| OC[C@H]1O[C@@H](n2cnc3c(NC4CCCC4)ncnc32)[C@H](O)[C@@H]1O [N6-CYCLOPENTYLADENOSINE] | 421 |
| C#Cc1nc(N)c2ncn(C3O[C@H](CO)[C@@H](O)[C@H]3O)c2n1 (stereo not given in full) | 37.6 |
| COCC#Cc1nc(N)c2ncn([C@@H]3O[C@H](CO)[C@@H](O)[C@H]3O)c2n1 | 88.1 |
| Nc1nc(C#CCCO)nc2c1ncn2[C@@H]1O[C@H](CO)[C@@H](O)[C@H]1O | 40.1 |

Next, values leading:

| Ki [nM] | SMILES |
| --- | --- |
| 12.8 | CCOCCCC#Cc1nc(N)c2ncn([C@@H]3O[C@H](CO)[C@@H](O)[C@H]3O)c2n1 |
| 5.4 | CCCCCC#Cc1nc(N)c2ncn([C@@H]3O[C@H](CO)[C@@H](O)[C@H]3O)c2n1 |
| 10.6 | CCCCOCC#Cc1nc(N)c2ncn([C@@H]3O[C@H](CO)[C@@H](O)[C@H]3O)c2n1 |
| > 567 | CCCCCCC#Cc1nc2c(N)ncnc2n1C1O[C@H](CO)[C@@H](O)[C@H]1O (stereo not given in full) |
| 10.2 | CCCOCCC#Cc1nc(N)c2ncn(C3O[C@H](CO)[C@@H](O)[C@H]3O)c2n1 (stereo not given in full) |
| 33.7 | CCCCCCCC#Cc1nc(N)c2ncn([C@@H]3O[C@H](CO)[C@@H](O)[C@H]3O)c2n1 |
| > 567 | CCCCCCC#Cc1nc(O)c2ncn(C3O[C@H](CO)[C@@H](O)[C@H]3O)c2n1 (stereo not given in full) |
| 307 | CCCCCCCCOCCC#Cc1nc(N)c2ncn([C@@H]3O[C@H](CO)[C@@H](O)[C@H]3O)c2n1 |

test system: Rattus norvegicus; test: Dose producing 30% decrease of blood pressure in anesthetized rats (SHR); assay type: functional

| SMILES | ED30 [µg/kg] |
| --- | --- |
| OC[C@H]1O[C@@H](n2cnc3c(NC4CCCC4)ncnc32)[C@H](O)[C@@H]1O [N6-CYCLOPENTYLADENOSINE] | 0.5 |
| CCOCCCC#Cc1nc(N)c2ncn([C@@H]3O[C@H](CO)[C@@H](O)[C@H]3O)c2n1 | 1.42 |
| C#Cc1nc(N)c2ncn(C3O[C@H](CO)[C@@H](O)[C@H]3O)c2n1 (stereo not given in full) | 5.91 |
| CCCCCC#Cc1nc(N)c2ncn([C@@H]3O[C@H](CO)[C@@H](O)[C@H]3O)c2n1 | 0.14 |
| CCCCOCC#Cc1nc(N)c2ncn([C@@H]3O[C@H](CO)[C@@H](O)[C@H]3O)c2n1 | 1.06 |
| COCC#Cc1nc(N)c2ncn([C@@H]3O[C@H](CO)[C@@H](O)[C@H]3O)c2n1 | 23.8 |
| CCCCCCC#Cc1nc2c(N)ncnc2n1C1O[C@H](CO)[C@@H](O)[C@H]1O (stereo not given in full) | > 100 |
| CCNC(=O)[C@H]1O[C@@H](n2cnc3c(N)nc(NCCc4ccc(CCC(=O)O)cc4)nc32)[C@H](O)[C@@H]1O [CGS-21680] | 0.83 |
| COc1cc(OC)cc(C(CNc2ncnc3c2ncn3[C@@H]2O[C@H](CO)[C@@H](O)[C@H]2O)c2ccccc2C)c1 (stereo not given in full) | 12.1 |
| CCCOCCC#Cc1nc(N)c2ncn(C3O[C@H](CO)[C@@H](O)[C@H]3O)c2n1 (stereo not given in full) | 1.1 |
| CCCCCCCC#Cc1nc(N)c2ncn([C@@H]3O[C@H](CO)[C@@H](O)[C@H]3O)c2n1 | 0.53 |
| CCCCCCC#Cc1nc(O)c2ncn(C3O[C@H](CO)[C@@H](O)[C@H]3O)c2n1 (stereo not given in full) | > 100 |
| CCCCCCCCOCCC#Cc1nc(N)c2ncn([C@@H]3O[C@H](CO)[C@@H](O)[C@H]3O)c2n1 | 9.16 |
| CCCCC#Cc1nc(N)c2ncn([C@@H]3O[C@H](CO)[C@@H](O)[C@H]3O)c2n1 | 0.11 |
| Nc1nc(C#CCCO)nc2c1ncn2[C@@H]1O[C@H](CO)[C@@H](O)[C@H]1O | 2.53 |

target: T1, Adenosine receptor A1 (Rattus norvegicus, UniProt P25099)
T1 sequence (P25099 whole entry): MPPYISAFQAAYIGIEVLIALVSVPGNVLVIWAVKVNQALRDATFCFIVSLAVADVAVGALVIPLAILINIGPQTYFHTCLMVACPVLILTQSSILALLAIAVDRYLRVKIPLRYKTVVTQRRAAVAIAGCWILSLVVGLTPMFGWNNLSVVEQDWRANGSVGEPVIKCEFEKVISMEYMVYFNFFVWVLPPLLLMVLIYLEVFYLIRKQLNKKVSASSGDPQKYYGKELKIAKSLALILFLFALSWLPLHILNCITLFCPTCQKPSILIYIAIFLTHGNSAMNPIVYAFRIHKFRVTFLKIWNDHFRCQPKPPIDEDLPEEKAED
Description: Binding affinity against adenosine A1 receptor in rat brain membranes using [3H]CHA as radioligand

| SMILES | Ki [nM] |
| --- | --- |
| C#Cc1nc(N)c2ncn(C3O[C@H](CO)[C@@H](O)[C@H]3O)c2n1 (stereo not given in full) | 272 |
| COCC#Cc1nc(N)c2ncn([C@@H]3O[C@H](CO)[C@@H](O)[C@H]3O)c2n1 | 38.1 |
| COc1cc(OC)cc(C(CNc2ncnc3c2ncn3[C@@H]2O[C@H](CO)[C@@H](O)[C@H]2O)c2ccccc2C)c1 (stereo not given in full) | 103 |
| Nc1nc(C#CCCO)nc2c1ncn2[C@@H]1O[C@H](CO)[C@@H](O)[C@H]1O | 81.4 |

The next lines start with the values.

| Ki [nM] | SMILES |
| --- | --- |
| 244 | CCOCCCC#Cc1nc(N)c2ncn([C@@H]3O[C@H](CO)[C@@H](O)[C@H]3O)c2n1 |
| 170 | CCCCCC#Cc1nc(N)c2ncn([C@@H]3O[C@H](CO)[C@@H](O)[C@H]3O)c2n1 |
| 18.5 | CCCCOCC#Cc1nc(N)c2ncn([C@@H]3O[C@H](CO)[C@@H](O)[C@H]3O)c2n1 |
| > 567 | CCCCCCC#Cc1nc2c(N)ncnc2n1C1O[C@H](CO)[C@@H](O)[C@H]1O (stereo not given in full) |
| 128 | CCCOCCC#Cc1nc(N)c2ncn(C3O[C@H](CO)[C@@H](O)[C@H]3O)c2n1 (stereo not given in full) |
| 257 | CCCCCCCC#Cc1nc(N)c2ncn([C@@H]3O[C@H](CO)[C@@H](O)[C@H]3O)c2n1 |
| > 567 | CCCCCCC#Cc1nc(O)c2ncn(C3O[C@H](CO)[C@@H](O)[C@H]3O)c2n1 (stereo not given in full) |
| 1500 | CCCCCCCCOCCC#Cc1nc(N)c2ncn([C@@H]3O[C@H](CO)[C@@H](O)[C@H]3O)c2n1 |
| 126 | CCCCC#Cc1nc(N)c2ncn([C@@H]3O[C@H](CO)[C@@H](O)[C@H]3O)c2n1 |
